ChEMBL document CHEMBL4000254, “Sodium Channel Blockers” (ACS Med Chem Lett, 2017)

What follows are compounds tested against Sodium channel protein type 9 subunit alpha (Homo sapiens, UniProt Q15858) (assay: Inhibition of human Nav1.7 expressed in HEK293 cells assessed as inhibition of peak current after 50 secs by automated patch clamp assay).
Type: cell-based

Sodium channel protein type 9 subunit alpha, sequence (Q15858 whole entry): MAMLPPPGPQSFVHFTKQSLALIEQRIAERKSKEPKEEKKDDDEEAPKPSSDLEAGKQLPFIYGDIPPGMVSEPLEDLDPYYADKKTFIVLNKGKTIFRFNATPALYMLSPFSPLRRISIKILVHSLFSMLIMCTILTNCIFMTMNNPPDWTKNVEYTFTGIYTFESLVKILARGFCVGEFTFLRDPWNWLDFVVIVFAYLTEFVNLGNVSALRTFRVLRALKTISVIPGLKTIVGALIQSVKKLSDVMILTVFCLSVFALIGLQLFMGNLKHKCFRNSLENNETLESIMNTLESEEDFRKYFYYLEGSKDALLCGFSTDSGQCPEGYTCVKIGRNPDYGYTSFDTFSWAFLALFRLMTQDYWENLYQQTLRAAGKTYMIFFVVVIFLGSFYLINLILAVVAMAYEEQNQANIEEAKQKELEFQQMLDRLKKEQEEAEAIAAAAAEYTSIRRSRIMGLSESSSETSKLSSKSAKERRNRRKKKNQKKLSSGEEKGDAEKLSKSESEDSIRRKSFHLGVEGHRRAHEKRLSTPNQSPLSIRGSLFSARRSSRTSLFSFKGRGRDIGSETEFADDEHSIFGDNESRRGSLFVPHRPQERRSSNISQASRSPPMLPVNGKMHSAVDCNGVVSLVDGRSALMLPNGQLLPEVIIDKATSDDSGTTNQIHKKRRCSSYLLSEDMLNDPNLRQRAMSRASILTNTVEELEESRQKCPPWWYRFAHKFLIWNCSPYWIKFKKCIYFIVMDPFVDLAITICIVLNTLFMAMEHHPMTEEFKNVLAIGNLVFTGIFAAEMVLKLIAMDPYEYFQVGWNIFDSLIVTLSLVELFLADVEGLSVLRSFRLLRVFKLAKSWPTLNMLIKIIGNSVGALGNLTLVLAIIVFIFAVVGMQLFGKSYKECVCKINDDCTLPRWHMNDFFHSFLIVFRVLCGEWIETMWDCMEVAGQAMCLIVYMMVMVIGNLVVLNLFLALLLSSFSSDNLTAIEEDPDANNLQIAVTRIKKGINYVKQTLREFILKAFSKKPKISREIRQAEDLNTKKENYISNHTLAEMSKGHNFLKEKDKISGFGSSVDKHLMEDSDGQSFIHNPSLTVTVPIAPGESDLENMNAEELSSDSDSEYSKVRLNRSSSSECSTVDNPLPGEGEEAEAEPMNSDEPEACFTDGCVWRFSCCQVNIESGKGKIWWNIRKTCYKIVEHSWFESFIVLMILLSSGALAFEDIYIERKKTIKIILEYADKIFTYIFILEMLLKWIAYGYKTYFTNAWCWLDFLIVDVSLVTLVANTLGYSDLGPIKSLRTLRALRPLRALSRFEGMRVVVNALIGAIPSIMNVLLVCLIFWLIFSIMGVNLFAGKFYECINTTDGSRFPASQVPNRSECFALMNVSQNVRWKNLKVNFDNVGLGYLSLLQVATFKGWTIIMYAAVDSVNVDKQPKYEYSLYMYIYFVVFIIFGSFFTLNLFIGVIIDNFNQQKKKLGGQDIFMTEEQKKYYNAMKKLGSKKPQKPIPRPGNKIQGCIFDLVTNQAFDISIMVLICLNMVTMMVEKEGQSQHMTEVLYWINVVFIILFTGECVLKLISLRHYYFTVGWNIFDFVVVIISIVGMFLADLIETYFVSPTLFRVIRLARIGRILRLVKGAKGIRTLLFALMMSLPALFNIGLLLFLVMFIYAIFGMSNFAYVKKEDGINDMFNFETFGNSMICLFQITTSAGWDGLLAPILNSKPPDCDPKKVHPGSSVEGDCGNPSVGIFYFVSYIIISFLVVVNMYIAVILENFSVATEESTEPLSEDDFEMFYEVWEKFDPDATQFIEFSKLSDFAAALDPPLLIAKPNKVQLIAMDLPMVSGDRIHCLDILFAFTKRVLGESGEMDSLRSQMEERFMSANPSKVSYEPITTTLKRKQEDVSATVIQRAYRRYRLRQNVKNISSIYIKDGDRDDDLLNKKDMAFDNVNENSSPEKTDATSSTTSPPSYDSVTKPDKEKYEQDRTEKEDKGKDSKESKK

`CS(=O)(=O)NC(=O)c1cc(Cl)c(-n2nc(Cl)c3cc(-c4ccc(Cl)c(F)c4)ccc32)cc1F` and `CS(=O)(=O)NC(=O)c1cc(Cl)c(-n2nc(Cl)c3cc(-c4cccc(Cl)c4F)ccc32)cc1F` are within 1.5-fold of each other in IC50: 80 nM for the first, 70 nM for the second.

Going from `Cc1cc(F)ccc1-c1cnc2c(c1)c(Cl)cn2-c1cc(F)c(C(=O)NS(C)(=O)=O)cc1Cl` to `CS(=O)(=O)NC(=O)c1cc(Cl)c(-n2cc(Cl)c3cc(-c4ccc(F)cc4Cl)cnc32)cc1F`, the IC50 falls from 90 nM to 40 nM (2.2-fold). The second is the more potent here.

First: Cc1cccc(-c2ccc3c(c2)c(F)nn3-c2cc(F)c(C(=O)NS(C)(=O)=O)cc2Cl)c1
Second: CS(=O)(=O)NC(=O)c1cc(Cl)c(-n2nc(F)c3cc(-c4cccc(Cl)c4)ccc32)cc1F
The IC50 of the first is 2-fold higher: 80 nM for the first, 40 nM for the second.

Going from `CS(=O)(=O)NC(=O)c1cc(Cl)c(-n2nc(Cl)c3cc(-c4ccc(OC(F)(F)F)cc4)ccc32)cc1F` to `Cc1cccc(-c2ccc3c(c2)c(Cl)nn3-c2cc(F)c(C(=O)NS(C)(=O)=O)cc2Cl)c1`, the IC50 falls from 80 nM to 39 nM (2.1-fold). The second is the more potent here.

First: CS(=O)(=O)NC(=O)c1cc(Cl)c(-n2cc(Cl)c3cc(-c4ccc(F)cc4F)cnc32)cc1F
Second: CS(=O)(=O)NC(=O)c1cc(Cl)c(-n2cc(F)c3cc(-c4cccc(Cl)c4F)cnc32)cc1F
The IC50 of the first is 2-fold higher: 80 nM for the first, 40 nM for the second. The second is the more potent here.

`CS(=O)(=O)NC(=O)c1cc(Cl)c(-n2cc(F)c3cc(-c4ccc(C(F)(F)F)cc4)cnc32)cc1F` and `CS(=O)(=O)NC(=O)c1cc(Cl)c(-n2cc(Cl)c3cc(-c4ccc(C(F)(F)F)cc4)cnc32)cc1F` are the same in IC50: 50 nM for the first, 50 nM for the second.

`CS(=O)(=O)NC(=O)c1cc(Cl)c(-n2nc(F)c3cc(-c4cccc(F)c4)ccc32)cc1F` and `COc1cccc(-c2ccc3c(c2)c(F)nn3-c2cc(F)c(C(=O)NS(C)(=O)=O)cc2Cl)c1` are within 1.5-fold of each other in IC50: 90 nM for the first, 80 nM for the second.

`CS(=O)(=O)NC(=O)c1cc(Cl)c(-n2ncc3cc(-c4ccc(Cl)cc4F)ccc32)cc1F` and `CS(=O)(=O)NC(=O)c1cc(Cl)c(-n2ncc3cc(-c4cccc(Cl)c4)ccc32)cc1F` are the same in IC50: 70 nM for the first, 70 nM for the second.

First: CS(=O)(=O)NC(=O)c1cc(Cl)c(-n2nc(Cl)c3cc(-c4cc(F)c(F)c(F)c4)ccc32)cc1F
Second: CS(=O)(=O)NC(=O)c1cc(Cl)c(-n2nc(Cl)c3cc(-c4cc(F)ccc4F)ccc32)cc1F
The IC50 of the first is 4.5-fold lower: 20 nM for the first, 90 nM for the second.

First: CS(=O)(=O)NC(=O)c1cc(Cl)c(-n2nc(Cl)c3cc(OCc4ccc5ccccc5c4)ccc32)cc1F
Second: Cc1ccccc1-c1ccc2c(c1)c(F)nn2-c1cc(F)c(C(=O)NS(C)(=O)=O)cc1Cl
The IC50 of the first is 7.9-fold lower: 7.6 nM for the first, 60 nM for the second. The first is the more potent here.

`CS(=O)(=O)NC(=O)c1cc(Cl)c(-n2cc(F)c3cc(-c4cccc(Cl)c4)cnc32)cc1F` showed an IC50 of 50 nM.
